Source: US20120128711A1, “ANTI-INFLAMMATORY APPROACH TO PREVENTION AND SUPPRESSION OF POST-TRAUMATIC STRESS DISORDER, TRAUMATIC BRAIN INJURY, DEPRESSION AND ASSOCIATED DISEASE STATES” (TOTAL NUTRACEUTICAL SOLUTIONS, INC., priority 2009, published 2012)
“Also recorded” adds a separate entry of the source.

Assays:
[1] = system: Drosophila melanogaster under Paraquat-induced oxidative stress; test: Survival of Drosophila melanogaster under Paraquat-induced oxidative stress; type: in vivo; settings: 10 mM Paraquat
Method: The effect of Agaricus Blazei without enrichment, with Vitamin D2 enrichment, pure Vitamin D2 and control (vehicle for the delivery) on the survival rate of Drosophila melanogaster under Paraquat-induced oxidative stress condition was tested. The study focused on the control of Paraquat induced oxidative stress/biologic death. Paraquat is a very potent oxidative stress inducing chemical and causes death in animals and plants by the toxicity of released free radicals. Paraquat (10 mM concentration) (Sigma Aldrich) was used to chemically induce oxidative stress. Paraquat is the trade name for N,N′-dimethyl-4,4′-bipyridinium dichloride, a widely used herbicide. Paraquat, a viologen, is quick-acting and non-selective, killing green plant tissue on contact. It is also toxic to humans when swallowed. This is the most standard chemical used in experimental induction of oxidative stress using the Drosophila model system. It catalyzes the formation of reactive oxygen species (ROS). Paraquat will undergo redox cycling in vivo, gets reduced by an electron donor such NADPH, before being oxidized by an electron receptor such as dioxygen to produce superoxide, a major ROS.
The following materials and methods were utilized. Vials containing 10 mM Paraquat (from Sigma Aldrich) in 5 ml of 1.2% Low melting point Agarose medium were prepared. A strip of half moist filter paper was inserted in the medium (with the wet end in). Yeast paste containing 1% concentration (w/w) of the various test materials (see above) mixed to homogeneity was prepared. Yeast paste without drug was used as control. Uniform aliquot (˜300 mg) of yeast paste with or without the test material) was applied to vials in such a way that yeast paste was on the glass surface and covered the dry end (top) of the filter paper strip. Freshly enclosed wild type isogenized Canton-S males and females were collected and starved on 1% agar medium for 5-6 hours. Four males and females were transferred to the vial containing 10 mM paraquat in LMP agarose medium and yeast paste with +/− test material (8 flies per vial). 6 vials were used per experiment. Vials with flies were placed horizontally in a tray. The experiment was conducted at 25 degrees C. temperature. Flies were transferred once in 2 days and the number of flies surviving at each transfer was recorded.

[2] = system: Alzheimer's disease (AD) model in Drosophila; test: Survival of Alzheimer's disease (AD) model flies (UAS-hAPP;408-GAL4); type: in vivo; settings: mushroom or turmeric powder 1% w/w, Vitamin D2/D3 0.75% w/w in yeast paste, 25 degrees C
Text: Type of Model (with specific Drosophila model of neurodegeneration, with references). The targeted over/ectopic expression of APP in the brain using a UAS promoter driven APP transgene, induced by a specific GAL4 trans-driver in the brain of a Drosophila model system, was used for this Example. Below is a reference for such over-expression of APP in the Drosophila model system and the combination gives a fully penetrant AD with limited life-span.
β-Amyloid peptides and amyloid precursor protein (APP) play a deterministic role in Alzheimer's disease (AD). […]
We determined the extension of life span in the mutant strain for each test compound. […]
A series of experiments were run according to the methods earlier reported on Paraquat induced oxidative stress and Drosophila Alzheimer's disease flies. […] We determined the extension of life span in the mutant strain for each test compound as detailed below. […]
In the meantime, yeast paste containing required concentration of compound was prepared. […] Required quantity of both yeast and compound was weighed and finely ground in a pestle and mortar. The finely ground powder was transferred to a small beaker and appropriate quantity of water was added and mixed very well to make a homogeneous paste. […]

Compound	effect on survival under Paraquat-induced oxidative stress (words) [1]	survivability under Paraquat-induced oxidative stress condition ([1]; 1% w/w test material in yeast paste, period of 10 days, 25 degrees C)	effect on survival under Paraquat-induced oxidative stress (words) ([1]; listed as Vitamin D2)	effect on survival of AD flies [2]
C=C1CC[C@H](O)C/C1=C/C=C1\CCC[C@]2(C)[C@@H]([C@H](C)CCCC(C)C)CC[C@@H]12 [Vitamin D3, cholecalciferol]	no beneficial effect; also recorded: no effect on survival			
C=C1CC[C@H](O)C/C1=C/C=C1\CCC[C@]2(C)[C@@H]([C@H](C)/C=C/[C@H](C)C(C)C)CC[C@@H]12 [pure Vitamin D2, ergocalciferol]	no effect on survival	13%+/−3%	deleterious effect on the survival; also recorded: no beneficial effect	no such effect
